Results published in patent US20260285850A1, “SUBSTITUTED OXAZOLIDINONES AND IMIDAZOLINONES AS HERBICIDES” (FMC CORPORATION, priority 2023, published 2026).

How the values were obtained:
Assay type in all cases: in vivo
[1] = tested on: barnyardgrass (Echinochloa crus-galli); assay: Test A preemergence soil spray, visual injury rating 0-100; details: 10 days
Summary of the method: (§1)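 Directed preemergence spray onto seeded soil or postemergence spray onto 2-10 cm plants (loam plus sand); compound carried in surfactant-containing non-phytotoxic solvent. Injury rated by eye after 10 d greenhouse growth; 0 = no effect, 100 = complete control.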

[2] = tested on: blackgrass (Alopecurus myosuroides); assay: as above; details: 10 days
Summary of the method: as §1

corn (Zea mays) [3] = assay: as above; details: 10 days
Summary of the method: as §1

[4] = tested on: green foxtail (Setaria viridis); assay: as above; details: 10 days
Summary of the method: as §1

kochia (Bassia scoparia) [5] = assay: as above; details: 10 days
Summary of the method: as §1

[6] = tested on: oat, wild (wild oat, Avena fatua); assay: as above; details: 10 days
Summary of the method: as §1

[7] = tested on: palmer (palmer amaranth, palmer pigweed, Amaranthus palmeri); assay: as above; details: 10 days
Summary of the method: as §1

[8] = tested on: ragweed (common ragweed, Ambrosia artemisiifolia); assay: as above; details: 10 days
Summary of the method: as §1

[9] = tested on: ryegrass, Italian (italian ryegrass, Lolium multiflorum); assay: as above; details: 10 days
Summary of the method: as §1

soybean (Glycine max) [10] = assay: as above; details: 10 days
Summary of the method: as §1

[11] = tested on: wheat (Triticum aestivum); assay: as above; details: 10 days
Summary of the method: as §1

[12] = tested on: barnyardgrass (Echinochloa crus-galli); assay: Test A postemergence application, visual injury rating 0-100
Summary of the method: as §1

[13] = tested on: blackgrass (Alopecurus myosuroides); assay: as above
Summary of the method: as §1

corn (Zea mays) [14] = assay: as above
Summary of the method: as §1

[15] = tested on: galium (catchweed bedstraw, Galium aparine); assay: as above
Summary of the method: as §1

[16] = tested on: green foxtail (Setaria viridis); assay: as above
Summary of the method: as §1

[17] = tested on: horseweed (Erigeron canadensis); assay: as above
Summary of the method: as §1

kochia (Bassia scoparia) [18] = assay: as above
Summary of the method: as §1

[19] = tested on: oat, wild (wild oat, Avena fatua); assay: as above
Summary of the method: as §1

[20] = tested on: palmer (palmer amaranth, palmer pigweed, Amaranthus palmeri); assay: as above
Summary of the method: as §1

[21] = tested on: ragweed (common ragweed, Ambrosia artemisiifolia); assay: as above
Summary of the method: as §1

[22] = tested on: ryegrass, Italian (italian ryegrass, Lolium multiflorum); assay: as above
Summary of the method: as §1

soybean (Glycine max) [23] = assay: as above
Summary of the method: as §1

[24] = tested on: wheat (Triticum aestivum); assay: as above
Summary of the method: as §1

[25] = tested on: barnyardgrass (Echinochloa crusgalli); assay: Test B flooded paddy test, visual plant response rating 0-100; details: 250 g ai/ha, Flood, applied to paddy water, evaluated after 13 days
Summary of the method: (§2)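 Greenhouse, 13 d. Seedlings at 2-leaf stage, pots flooded to 3 cm, compound delivered into floodwater, water level held constant. Evaluated visually relative to controls.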

[26] = tested on: ducksalad (Heteranthera limosa); assay: as above; details: 250 g ai/ha, Flood, applied to paddy water, evaluated after 13 days
Summary of the method: as §2

rice (Oryza sativa) = assay: as above; details: 250 g ai/ha, Flood, applied to paddy water, evaluated after 13 days
Summary of the method: as §2

[27] = tested on: sedge, umbrella (small-flower umbrella sedge, Cyperus difformis); assay: as above; details: 250 g ai/ha, Flood, applied to paddy water, evaluated after 13 days
Summary of the method: as §2

[28] = 62 g ai/ha, 0 = no effect, 100 = complete control
[29] = 62 g ai/ha, postemergence, 10 days, 0 = no effect, 100 = complete control
[30] = Postemergence, 16 g ai/ha, greenhouse 10 days, 0 no effect, 100 complete control

COC(=O)C1CC(NC(=O)C2(C)CN(c3cc(F)cc(F)c3)C(=O)O2)C1 (stereo not shown) [Compound 130]
Barnyardgrass plant response rating ([1]; 16 g ai/ha, 0 to 100 scale): 0
Barnyardgrass plant response rating (0-100) [1, 28]: 70
Blackgrass plant response rating ([2]; 16 g ai/ha, 0 to 100 scale): 70
Blackgrass plant response rating (0-100) [2, 28]: 90
Corn plant response rating (corn (Zea mays) [3]; 16 g ai/ha, 0 to 100 scale): 10
Corn plant response rating (0-100) (corn (Zea mays) [3]; [28]): 90
Foxtail, Green plant response rating ([4]; 16 g ai/ha, 0 to 100 scale): 50
Foxtail, Green plant response rating (0-100) [4, 28]: 90
Kochia plant response rating (kochia (Bassia scoparia) [5]; 16 g ai/ha, 0 to 100 scale): 0
Kochia plant response rating (0-100) (kochia (Bassia scoparia) [5]; [28]): 90
Oat, Wild plant response rating ([6]; 16 g ai/ha, 0 to 100 scale): 50
Oat, Wild plant response rating (0-100) [6, 28]: 90
Pigweed, Palmer plant response rating ([7]; 16 g ai/ha, 0 to 100 scale): 10
Pigweed, Palmer plant response rating (0-100) [7, 28]: 30
Ragweed plant response rating ([8]; 16 g ai/ha, 0 to 100 scale): 0
Ragweed plant response rating (0-100) [8, 28]: 0
Ryegrass, Italian plant response rating ([9]; 16 g ai/ha, 0 to 100 scale): 40
Ryegrass, Italian plant response rating (0-100) [9, 28]: 90
Soybean plant response rating (soybean (Glycine max) [10]; 16 g ai/ha, 0 to 100 scale): 0
Soybean plant response rating (0-100) (soybean (Glycine max) [10]; [28]): 40
Wheat plant response rating ([11]; 16 g ai/ha, 0 to 100 scale): 90
Wheat plant response rating (0-100) [11, 28]: 90
Barnyardgrass plant response rating (0-100) [12, 29]: 80
Barnyardgrass plant response rating (0 to 100 scale) [12, 30]: 70
Blackgrass plant response rating (0-100) [13, 29]: 90
Blackgrass plant response rating (0 to 100 scale) [13, 30]: 90
Corn plant response rating (0-100) (corn (Zea mays) [14]; [29]): 100
Corn plant response rating (0 to 100 scale) (corn (Zea mays) [14]; [30]): 100
Galium plant response rating (0-100) [15, 29]: 90
Galium plant response rating (0 to 100 scale) [15, 30]: 70
Foxtail, Green plant response rating (0-100) [16, 29]: 90
Foxtail, Green plant response rating (0 to 100 scale) [16, 30]: 90
Horseweed plant response rating (0-100) [17, 29]: 30
Horseweed plant response rating (0 to 100 scale) [17, 30]: 10
Kochia plant response rating (0-100) (kochia (Bassia scoparia) [18]; [29]): 90
Kochia plant response rating (0 to 100 scale) (kochia (Bassia scoparia) [18]; [30]): 80
Oat, Wild plant response rating (0-100) [19, 29]: 90
Oat, Wild plant response rating (0 to 100 scale) [19, 30]: 90
Pigweed, Palmer plant response rating (0-100) [20, 29]: 90
Pigweed, Palmer plant response rating (0 to 100 scale) [20, 30]: 80
Ragweed plant response rating (0-100) [21, 29]: 30
Ragweed plant response rating (0 to 100 scale) [21, 30]: 20
Ryegrass, Italian plant response rating (0-100) [22, 29]: 90
Ryegrass, Italian plant response rating (0 to 100 scale) [22, 30]: 70
Soybean plant response rating (0-100) (soybean (Glycine max) [23]; [29]): 70
Soybean plant response rating (0 to 100 scale) (soybean (Glycine max) [23]; [30]): 60
Wheat plant response rating (0-100) [24, 29]: 90
Wheat plant response rating (0 to 100 scale) [24, 30]: 90
Plant response rating, Barnyardgrass (0 to 100 scale, 0 is no effect and 100 is complete control) [25]: 80
Plant response rating, Ducksalad (0 to 100 scale, 0 is no effect and 100 is complete control) [26]: 100
Plant response rating, Rice (0 to 100 scale, 0 is no effect and 100 is complete control) (rice (Oryza sativa)): 60
Plant response rating, Sedge, Umbrella (0 to 100 scale, 0 is no effect and 100 is complete control) [27]: 90
